{
  "source": "PubChem BioAssay (NCI)",
  "note": "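Five compound concentrations were applied to cells in 96-well plates for 48 hours; endpoints were derived by simple linear interpolation of the resulting dose-response curve. GI50 marks 50% less growth. TGI denotes the concentration required for complete inhibition of growth.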",
  "data": [
    {"test_system": "K-562 leukemia", "test": "growth of human tumour cells (NCI), 48 h", "units": {"TGI": "µM", "GI50": "µM"}, "values": [
      {"smiles": "Cc1ccc([N+](=O)[O-])c2c(NCCCN(C)C)ccnc12", "TGI": "> 100"},
      {"smiles": "FC(F)(F)c1ccc2c(Nc3cccc(C4CC(c5ccccc5)=NN4c4ccc(Cl)cc4)c3)ccnc2c1", "note": "(configuration not stated)", "GI50": 3.31, "TGI": 14.3},
      {"smiles": "COc1cc(-c2cn(C)c(=O)c(C)c2C)cc(OC)c1CN1CC[C@H](N2CCN(c3ccc(N[C@H]4CCC(=O)NC4=O)cc3F)CC2)C(F)(F)C1", "GI50": 9.44, "TGI": "> 100"},
      {"smiles": "CCCNCc1cc(C)cc2c1nc(N1CCNCC1)n2Cc1cc(C)c(F)c(C)c1", "GI50": 1.9, "TGI": 3.78},
      {"smiles": "CNC(=O)c1cn(C[C@H](F)CCc2ccc(NC(=O)Cc3cc(OC4CC(F)(F)C4)cc(C)n3)nn2)nn1", "GI50": "> 100", "TGI": "> 100"},
      {"smiles": "Cc1ccsc1C(=S)Nc1ccc(Cl)c(C(=O)OC(C(C)C)C(C)C)c1", "TGI": "> 100"},
      {"smiles": "Cc1sc(C)c(-c2ccc(CO)o2)c1-c1ccc(CO)o1", "GI50": 0.622, "TGI": "> 100"},
      {"smiles": "COc1cc(/C=C2\\CC3C4CC=C5CC(N6CCCC6)CC[C@]5(C)C4CC[C@]3(C)C2OC(C)=O)ccc1OCCN1CCCC1", "note": "(some centres not stated)", "GI50": 1.04, "TGI": 3.19},
      {"smiles": "CCCS(=O)(=O)c1nc(NC2CC2)cc(-c2ccc3c(ccn3C3CC(C)(C)NC(C)(C)C3)c2)n1", "GI50": 0.777, "TGI": 2.48},
      {"smiles": "Cc1ncc([N+](=O)[O-])n1CCNC(=O)CCCCn1ccnc1[N+](=O)[O-]", "TGI": "> 100"},
      {"smiles": "COC(=O)c1c(O)ccc2[nH]c(C)c(C#N)c12", "GI50": 55.3, "TGI": "> 100"},
      {"smiles": "Nc1ccc(SC23CC4CC(CC(C4)C2)C3)cc1", "TGI": "> 100"}
    ]},
    {"test_system": "CAKI-1 renal", "test": "growth of human tumour cells (NCI), 48 h", "units": {"TGI": "µM", "GI50": "µM"}, "values": [
      {"smiles": "Cc1ccc([N+](=O)[O-])c2c(NCCCN(C)C)ccnc12", "TGI": "> 100"},
      {"smiles": "COc1cc(-c2cn(C)c(=O)c(C)c2C)cc(OC)c1CN1CC[C@H](N2CCN(c3ccc(N[C@H]4CCC(=O)NC4=O)cc3F)CC2)C(F)(F)C1", "GI50": 6.87, "TGI": 33.4},
      {"smiles": "CCCNCc1cc(C)cc2c1nc(N1CCNCC1)n2Cc1cc(C)c(F)c(C)c1", "GI50": 14.4, "TGI": 27.6},
      {"smiles": "Cc1ccsc1C(=S)Nc1ccc(Cl)c(C(=O)OC(C(C)C)C(C)C)c1", "TGI": 59.8},
      {"smiles": "Cc1sc(C)c(-c2ccc(CO)o2)c1-c1ccc(CO)o1", "GI50": 1.16, "TGI": "> 100"},
      {"smiles": "COc1cc(/C=C2\\CC3C4CC=C5CC(N6CCCC6)CC[C@]5(C)C4CC[C@]3(C)C2OC(C)=O)ccc1OCCN1CCCC1", "note": "(some centres not stated)", "GI50": 1.55, "TGI": 3.93},
      {"smiles": "CCCS(=O)(=O)c1nc(NC2CC2)cc(-c2ccc3c(ccn3C3CC(C)(C)NC(C)(C)C3)c2)n1", "GI50": 1.56, "TGI": 3.05},
      {"smiles": "Cc1ncc([N+](=O)[O-])n1CCNC(=O)CCCCn1ccnc1[N+](=O)[O-]", "TGI": "> 100"},
      {"smiles": "COC(=O)c1c(O)ccc2[nH]c(C)c(C#N)c12", "GI50": 30.4, "TGI": 90.1},
      {"smiles": "Nc1ccc(SC23CC4CC(CC(C4)C2)C3)cc1", "TGI": "> 100"}
    ]},
    {"test_system": "MDA-MB-435", "test": "growth of human tumour cells (NCI), 48 h", "units": {"TGI": "µM", "GI50": "µM"}, "values": [
      {"smiles": "Cc1ccc([N+](=O)[O-])c2c(NCCCN(C)C)ccnc12", "TGI": 45.1},
      {"smiles": "FC(F)(F)c1ccc2c(Nc3cccc(C4CC(c5ccccc5)=NN4c4ccc(Cl)cc4)c3)ccnc2c1", "note": "(configuration not stated)", "GI50": 2.97, "TGI": 11.6},
      {"smiles": "COc1cc(-c2cn(C)c(=O)c(C)c2C)cc(OC)c1CN1CC[C@H](N2CCN(c3ccc(N[C@H]4CCC(=O)NC4=O)cc3F)CC2)C(F)(F)C1", "GI50": 13.8, "TGI": 30},
      {"smiles": "CCCNCc1cc(C)cc2c1nc(N1CCNCC1)n2Cc1cc(C)c(F)c(C)c1", "GI50": 1.7, "TGI": 3.21},
      {"smiles": "CNC(=O)c1cn(C[C@H](F)CCc2ccc(NC(=O)Cc3cc(OC4CC(F)(F)C4)cc(C)n3)nn2)nn1", "GI50": "> 100", "TGI": "> 100"},
      {"smiles": "Cc1ccsc1C(=S)Nc1ccc(Cl)c(C(=O)OC(C(C)C)C(C)C)c1", "TGI": 63.1},
      {"smiles": "Cc1sc(C)c(-c2ccc(CO)o2)c1-c1ccc(CO)o1", "GI50": "> 100", "TGI": "> 100"},
      {"smiles": "COc1cc(/C=C2\\CC3C4CC=C5CC(N6CCCC6)CC[C@]5(C)C4CC[C@]3(C)C2OC(C)=O)ccc1OCCN1CCCC1", "note": "(some centres not stated)", "GI50": 19.6, "TGI": 35.5},
      {"smiles": "CCCS(=O)(=O)c1nc(NC2CC2)cc(-c2ccc3c(ccn3C3CC(C)(C)NC(C)(C)C3)c2)n1", "GI50": 1.47, "TGI": 2.95},
      {"smiles": "Cc1ncc([N+](=O)[O-])n1CCNC(=O)CCCCn1ccnc1[N+](=O)[O-]", "TGI": "> 100"},
      {"smiles": "COC(=O)c1c(O)ccc2[nH]c(C)c(C#N)c12", "GI50": 32.9, "TGI": "> 100"},
      {"smiles": "Nc1ccc(SC23CC4CC(CC(C4)C2)C3)cc1", "TGI": "> 100"}
    ]},
    {"test_system": "UACC-62 melanoma", "test": "growth of human tumour cells (NCI), 48 h", "units": {"GI50": "µM", "TGI": "µM"}, "values": [
      {"smiles": "FC(F)(F)c1ccc2c(Nc3cccc(C4CC(c5ccccc5)=NN4c4ccc(Cl)cc4)c3)ccnc2c1", "note": "(configuration not stated)", "GI50": 2.64, "TGI": 10.6},
      {"smiles": "CCCNCc1cc(C)cc2c1nc(N1CCNCC1)n2Cc1cc(C)c(F)c(C)c1", "GI50": 1.87, "TGI": 3.66},
      {"smiles": "CNC(=O)c1cn(C[C@H](F)CCc2ccc(NC(=O)Cc3cc(OC4CC(F)(F)C4)cc(C)n3)nn2)nn1", "GI50": "> 100", "TGI": "> 100"},
      {"smiles": "Cc1ccsc1C(=S)Nc1ccc(Cl)c(C(=O)OC(C(C)C)C(C)C)c1", "TGI": "> 100"},
      {"smiles": "COc1cc(/C=C2\\CC3C4CC=C5CC(N6CCCC6)CC[C@]5(C)C4CC[C@]3(C)C2OC(C)=O)ccc1OCCN1CCCC1", "note": "(some centres not stated)", "GI50": 1.79, "TGI": 3.45},
      {"smiles": "Cc1ncc([N+](=O)[O-])n1CCNC(=O)CCCCn1ccnc1[N+](=O)[O-]", "TGI": "> 100"},
      {"smiles": "COC(=O)c1c(O)ccc2[nH]c(C)c(C#N)c12", "GI50": 25.7, "TGI": 90.4},
      {"smiles": "Nc1ccc(SC23CC4CC(CC(C4)C2)C3)cc1", "TGI": "> 100"}
    ]},
    {"test_system": "TK-10 renal", "test": "growth of human tumour cells (NCI), 48 h", "units": {"TGI": "µM", "GI50": "µM"}, "values": [
      {"smiles": "Cc1ccc([N+](=O)[O-])c2c(NCCCN(C)C)ccnc12", "TGI": "> 100"},
      {"smiles": "FC(F)(F)c1ccc2c(Nc3cccc(C4CC(c5ccccc5)=NN4c4ccc(Cl)cc4)c3)ccnc2c1", "note": "(configuration not stated)", "GI50": 4.76, "TGI": 21.4},
      {"smiles": "COc1cc(-c2cn(C)c(=O)c(C)c2C)cc(OC)c1CN1CC[C@H](N2CCN(c3ccc(N[C@H]4CCC(=O)NC4=O)cc3F)CC2)C(F)(F)C1", "GI50": 12, "TGI": 28.8},
      {"smiles": "CCCNCc1cc(C)cc2c1nc(N1CCNCC1)n2Cc1cc(C)c(F)c(C)c1", "GI50": 14.3, "TGI": 28},
      {"smiles": "CNC(=O)c1cn(C[C@H](F)CCc2ccc(NC(=O)Cc3cc(OC4CC(F)(F)C4)cc(C)n3)nn2)nn1", "GI50": "> 100", "TGI": "> 100"},
      {"smiles": "Cc1ccsc1C(=S)Nc1ccc(Cl)c(C(=O)OC(C(C)C)C(C)C)c1", "TGI": "> 100"},
      {"smiles": "Cc1sc(C)c(-c2ccc(CO)o2)c1-c1ccc(CO)o1", "GI50": 0.116, "TGI": 0.426},
      {"smiles": "COc1cc(/C=C2\\CC3C4CC=C5CC(N6CCCC6)CC[C@]5(C)C4CC[C@]3(C)C2OC(C)=O)ccc1OCCN1CCCC1", "note": "(some centres not stated)", "GI50": 14.9, "TGI": 29.2},
      {"smiles": "CCCS(=O)(=O)c1nc(NC2CC2)cc(-c2ccc3c(ccn3C3CC(C)(C)NC(C)(C)C3)c2)n1", "GI50": 1.52, "TGI": 2.98},
      {"smiles": "COC(=O)c1c(O)ccc2[nH]c(C)c(C#N)c12", "GI50": 8.8, "TGI": 49.2}
    ]}
  ]
}
